Assay results as given in publication PMC10022894, “Plant and prokaryotic TIR domains generate distinct cyclic ADPR NADase products” (Science Advances, 2023).

Assays:
Type in all cases: biochemical
[1] = target: T1, BdTIR (Brachypodium distachyon, UniProt I1GTC2); test: in vitro NADase assay on bead-bound protein, LC-MS; conditions: […] NAD+, ~[…] C, […] h
T1 construct: gene BRADI_1g24377v3; TIR-only protein; N-terminal Strep II and C-terminal 6xHis tags (pET30a+), E. coli BL21(DE3); catalytic E127
T1 sequence (I1GTC2 1-224): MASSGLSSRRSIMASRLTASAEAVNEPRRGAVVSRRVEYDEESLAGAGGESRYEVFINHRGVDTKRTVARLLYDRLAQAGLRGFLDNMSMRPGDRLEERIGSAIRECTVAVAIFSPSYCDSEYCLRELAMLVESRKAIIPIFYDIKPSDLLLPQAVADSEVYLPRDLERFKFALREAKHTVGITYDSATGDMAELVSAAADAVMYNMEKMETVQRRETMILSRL

[2] = target: T2, HopAM1 (Pseudomonas syringae group genomosp. 3, UniProt Q877R9); test: in vitro NADase assay on bead-bound protein, LC-MS; conditions: […] NAD+, ~[…] C, […] h
T2 construct: gene hopAM1-1; TIR effector; N-terminal Strep II and C-terminal 6xHis tags (pET30a+), E. coli BL21(DE3)
T2 sequence (Q877R9 whole entry): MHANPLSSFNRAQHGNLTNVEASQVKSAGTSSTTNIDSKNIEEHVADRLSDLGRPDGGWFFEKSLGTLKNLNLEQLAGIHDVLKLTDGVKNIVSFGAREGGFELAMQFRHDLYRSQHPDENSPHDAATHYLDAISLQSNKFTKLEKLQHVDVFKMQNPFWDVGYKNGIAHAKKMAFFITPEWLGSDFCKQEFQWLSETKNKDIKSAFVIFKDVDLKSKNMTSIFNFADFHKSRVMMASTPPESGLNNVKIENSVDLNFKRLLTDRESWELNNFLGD

[3] = target: T3, AbTIR (Acinetobacter baumannii, UniProt A0A009IHW8); test: in vitro NADase assay on bead-bound protein, LC-MS; conditions: […] NAD+, ~[…] C, […] h
T3 construct: gene J512_3302; core TIR domain, residues 157-292; N-terminal Strep II and C-terminal 6xHis tags (pET30a+), E. coli BL21(DE3); catalytic E208
T3 sequence (A0A009IHW8 134-269): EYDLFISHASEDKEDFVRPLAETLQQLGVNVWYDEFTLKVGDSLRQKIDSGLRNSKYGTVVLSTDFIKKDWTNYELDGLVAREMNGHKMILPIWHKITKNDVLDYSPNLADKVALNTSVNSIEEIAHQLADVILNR

[4] = target: T4, ThsA (Bacillus cereus, UniProt J8G6Z1); test: in vitro NAD+ consumption; conditions: stimulated by NADase products of ThsB-Auto
T4 construct: SIR2-type NADase with C-terminal SLOG domain; in vitro preparation not described in main text
T4 sequence (J8G6Z1 whole entry, the tested form may be a part): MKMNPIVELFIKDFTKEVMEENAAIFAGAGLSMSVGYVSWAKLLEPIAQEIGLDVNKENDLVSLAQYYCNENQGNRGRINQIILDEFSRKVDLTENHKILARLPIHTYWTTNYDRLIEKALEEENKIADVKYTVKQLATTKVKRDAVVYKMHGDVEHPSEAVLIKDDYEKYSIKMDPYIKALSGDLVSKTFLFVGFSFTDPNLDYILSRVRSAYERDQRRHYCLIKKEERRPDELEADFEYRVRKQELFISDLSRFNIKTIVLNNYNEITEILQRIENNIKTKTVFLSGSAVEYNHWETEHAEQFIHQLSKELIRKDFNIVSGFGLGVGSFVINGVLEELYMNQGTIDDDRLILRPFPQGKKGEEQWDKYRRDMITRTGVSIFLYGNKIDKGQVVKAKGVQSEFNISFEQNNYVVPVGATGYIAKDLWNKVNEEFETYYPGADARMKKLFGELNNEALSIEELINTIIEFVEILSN

NC(=O)c1ccc[n+]([C@@H]2O[C@H](COP(=O)(O)OP(=O)(O)OC[C@H]3O[C@@H](n4cnc5c(N)ncnc54)[C@H](O)[C@@H]3O)[C@@H](O)[C@H]2O)c1 [NAD^+]
in vitro NADase assay on bead-bound protein, LC-MS [1]: we compared the in vitro NADase products of ThsB-Auto, BdTIR, AbTIR, and HopAM1
in vitro NADase assay on bead-bound protein, LC-MS [2]: we compared the in vitro NADase products of ThsB-Auto, BdTIR, AbTIR, and HopAM1
in vitro NADase assay on bead-bound protein, LC-MS [3]: we compared the in vitro NADase products of ThsB-Auto, BdTIR, AbTIR, and HopAM1
in vitro NAD+ consumption [4]: NADase products of ThsB-Auto could stimulate NAD^+ consumption by ThsA in vitro
